How the values were obtained:
Aurora A kinase = molecular target: T1, Aurora A kinase (Homo sapiens, UniProt O14965); assay: Aurora-A (human) kinase assay (Kemptide substrate); assay type: biochemical; conditions: pIC50 is -log(IC50, M); 15 μM ATP; read-out: Kinase Inhibition pIC50 Aurora A kinase (converted)
T1 construct: purchased
T1 sequence (O14965 1-403): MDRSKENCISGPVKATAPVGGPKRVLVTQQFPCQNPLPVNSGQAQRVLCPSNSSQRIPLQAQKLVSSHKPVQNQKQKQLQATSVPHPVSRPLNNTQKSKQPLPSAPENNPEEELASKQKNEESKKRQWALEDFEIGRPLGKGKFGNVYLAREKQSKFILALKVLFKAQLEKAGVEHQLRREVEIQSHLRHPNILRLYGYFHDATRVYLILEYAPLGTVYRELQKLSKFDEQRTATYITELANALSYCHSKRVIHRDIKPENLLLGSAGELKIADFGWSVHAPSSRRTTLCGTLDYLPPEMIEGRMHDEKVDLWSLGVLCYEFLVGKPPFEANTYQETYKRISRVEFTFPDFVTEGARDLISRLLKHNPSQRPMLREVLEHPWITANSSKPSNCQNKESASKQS
In short: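 Radiometric filter-binding assay: commercial aurora-A kinase (5-10 ng) with 200 μM Kemptide in MOPS/EDTA pH 7.0, started with 10 mM Mg acetate and 15 μM ATP plus [γ-33P]-ATP. Incubated 40 min at room temperature, stopped with phosphoric acid, incorporated 33P counted by scintillation.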

CDK9/cyclin T1 = CDK9/cyclin T1 (Homo sapiens, UniProt P50750); assay: CDK 9 assay (CTD peptide substrate); assay type: biochemical; conditions: read-out: Kinase Inhibition pIC50 CDK9-cyclin T1 (converted)
Protocol: (§1) Kinase assays. The compounds of the invention above were investigated for their ability to inhibit the enzymatic activity of various protein kinases (Table 2). This was achieved by measurement of incorporation of radioactive phosphate from ATP into appropriate polypeptide substrates. Recombinant protein kinases and kinase complexes were produced or obtained commercially. Assays were performed using 96-well plates and appropriate assay buffers (typically 25 mM β-glycerophosphate, 20 mM MOPS, 5 mM EGTA, 1 mM DTT, 1 mM […], pH 7.4), into which were added 2-4 μg of active enzyme with appropriate substrates. The reactions were initiated by addition of Mg/ATP mix (15 mM MgCl2+100 μM ATP with 30-50 kBq per well of [γ-^32P]-ATP) and mixtures incubated as required at 30° C. Reactions were stopped on ice, followed by filtration through p81 filterplates or GF/C filterplates (Whatman Polyfiltronics, Kent, UK). After washing 3 times with 75 mM aq orthophosphoric acid, plates were dried, scintillant added and incorporated radioactivity measured in a scintillation counter (TopCount, Packard Instruments, Pangbourne, Berks, UK). Compounds for kinase assay were made up as 10 mM stocks in DMSO and diluted into 10% DMSO in assay buffer.
(§2) CDK 7 and 9 assays. CTD peptide substrate (biotinyl-Abx-(Tyr-Ser-Pro-Thr-Ser-Pro-Ser)4-NH2; 1-2 mg/mL) and recombinant human CDK7/cyclin H, CDK9/cyclin T1, or CDK9/cyclin K (0.5-2 μg) were incubated for 45 min at 30° C. in the presence of varying amounts of test compound in 20 mM MOPS pH 7.2, 25 mM β-glycerophosphate, 5 mM EGTA, 1 mM DTT, 1 mM sodium vanadate, 15 mM MgCl2, and 100 μM ATP (containing a trace amount of ^32PγATP) in a total volume of 25 μL in a 96-well microtiter plate. The reaction was stopped by placing the plate on ice for 2 min. Avidin (50 μg) was added to each well, and the plate was incubated at room temp for 30 min. The samples were transferred to a 96-well P81 filter plate, and washed (4×200 μL per well) with 75 mM phosphoric acid. Microscint 40 scintillation liquid (50 μL) was added to each well, and the amount of ^32P incorporation for each sample was measured using a Packard Topcount microplate scintillation counter.

CDK7/cyclin H = CDK7/cyclin H (Homo sapiens, UniProt P50613); assay: CDK 7 assay (CTD peptide substrate); assay type: biochemical; conditions: read-out: Kinase Inhibition pIC50 CDK7-cyclin H (converted)
Protocol: as §1, §2

[1] = molecular target: T2, Flt3 (FMS-like tyrosine kinase-3) (Homo sapiens, UniProt P36888); assay: Kinase assay (radioactive phosphate incorporation), Flt3; assay type: biochemical; conditions: pIC50 is -log(IC50, M), read-out: Kinase Inhibition pIC50 Flt3 (converted)
T2 sequence (P36888 27-993): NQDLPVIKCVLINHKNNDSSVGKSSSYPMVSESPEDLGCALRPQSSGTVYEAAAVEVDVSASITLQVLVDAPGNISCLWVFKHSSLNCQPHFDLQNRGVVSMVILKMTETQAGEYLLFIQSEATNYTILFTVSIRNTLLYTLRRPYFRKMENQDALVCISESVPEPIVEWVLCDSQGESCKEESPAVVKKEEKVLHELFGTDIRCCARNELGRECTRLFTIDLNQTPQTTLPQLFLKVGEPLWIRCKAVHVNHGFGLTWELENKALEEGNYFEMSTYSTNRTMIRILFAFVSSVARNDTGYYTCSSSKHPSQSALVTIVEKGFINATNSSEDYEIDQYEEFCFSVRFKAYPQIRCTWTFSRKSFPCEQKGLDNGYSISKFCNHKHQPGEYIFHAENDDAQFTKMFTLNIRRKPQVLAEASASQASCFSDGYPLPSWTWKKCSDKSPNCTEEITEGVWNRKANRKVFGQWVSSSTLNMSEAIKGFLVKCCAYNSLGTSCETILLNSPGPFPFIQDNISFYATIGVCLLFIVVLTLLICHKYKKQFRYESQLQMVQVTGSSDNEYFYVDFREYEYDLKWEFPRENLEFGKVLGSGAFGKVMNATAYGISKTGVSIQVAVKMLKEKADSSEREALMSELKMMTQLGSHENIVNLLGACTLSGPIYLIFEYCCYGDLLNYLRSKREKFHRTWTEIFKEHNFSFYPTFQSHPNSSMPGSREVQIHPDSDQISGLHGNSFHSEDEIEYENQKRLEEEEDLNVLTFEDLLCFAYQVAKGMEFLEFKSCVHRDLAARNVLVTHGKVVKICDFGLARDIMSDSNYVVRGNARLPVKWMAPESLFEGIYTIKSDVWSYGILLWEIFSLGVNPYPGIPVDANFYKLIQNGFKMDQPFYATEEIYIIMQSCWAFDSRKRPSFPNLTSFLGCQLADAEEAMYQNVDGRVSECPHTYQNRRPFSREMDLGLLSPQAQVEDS
Protocol: as §1

CDK2-cycline E = CDK2-cycline E (Homo sapiens, UniProt P24941); assay: Kinase assay (radioactive phosphate incorporation), CDK2-cyclin E; assay type: biochemical; conditions: read-out: Kinase Inhibition pIC50 CDK2-cycline E (converted)
In short: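 Radiometric filter-binding format: recombinant kinase + substrate, pH 7.4 MOPS buffer with EGTA, DTT, vanadate; 100 μM ATP/[γ-32P]-ATP, 15 mM MgCl2; 30° C; stopped on ice, P81 or GF/C filtration, scintillation read.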

Chain of CDK9/cyclin T1 (P50750 whole entry): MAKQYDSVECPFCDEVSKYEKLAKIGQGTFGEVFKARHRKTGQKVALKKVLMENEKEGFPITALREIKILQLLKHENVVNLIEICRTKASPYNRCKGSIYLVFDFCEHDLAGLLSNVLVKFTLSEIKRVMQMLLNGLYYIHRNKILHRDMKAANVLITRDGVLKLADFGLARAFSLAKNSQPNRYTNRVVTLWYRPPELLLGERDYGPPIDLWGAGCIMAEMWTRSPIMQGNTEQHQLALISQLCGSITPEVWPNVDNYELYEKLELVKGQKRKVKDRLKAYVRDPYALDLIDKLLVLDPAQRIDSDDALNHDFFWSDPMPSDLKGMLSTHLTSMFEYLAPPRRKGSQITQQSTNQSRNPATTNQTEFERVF
Chain of CDK9/cyclin T1 (O60563 whole entry partner): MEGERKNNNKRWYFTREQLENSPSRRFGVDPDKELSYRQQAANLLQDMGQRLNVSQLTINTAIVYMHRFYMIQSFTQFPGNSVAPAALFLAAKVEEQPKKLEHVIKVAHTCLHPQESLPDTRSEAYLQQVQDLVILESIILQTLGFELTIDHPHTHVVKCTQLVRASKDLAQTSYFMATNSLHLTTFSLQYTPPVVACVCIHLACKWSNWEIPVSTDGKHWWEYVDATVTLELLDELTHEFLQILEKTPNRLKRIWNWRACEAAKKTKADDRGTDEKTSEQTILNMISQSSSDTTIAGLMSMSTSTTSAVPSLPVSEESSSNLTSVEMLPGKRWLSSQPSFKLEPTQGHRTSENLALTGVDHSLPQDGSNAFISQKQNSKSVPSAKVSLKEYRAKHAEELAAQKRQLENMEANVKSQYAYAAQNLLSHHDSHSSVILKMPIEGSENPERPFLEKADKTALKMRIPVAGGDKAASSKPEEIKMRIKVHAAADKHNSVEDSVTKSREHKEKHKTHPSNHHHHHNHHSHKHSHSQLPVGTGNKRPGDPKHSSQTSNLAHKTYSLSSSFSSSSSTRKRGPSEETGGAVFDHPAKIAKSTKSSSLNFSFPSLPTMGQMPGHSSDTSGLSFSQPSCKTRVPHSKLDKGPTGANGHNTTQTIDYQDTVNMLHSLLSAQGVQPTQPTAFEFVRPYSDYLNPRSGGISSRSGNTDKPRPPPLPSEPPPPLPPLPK
Chain of CDK7/cyclin H (P50613 whole entry): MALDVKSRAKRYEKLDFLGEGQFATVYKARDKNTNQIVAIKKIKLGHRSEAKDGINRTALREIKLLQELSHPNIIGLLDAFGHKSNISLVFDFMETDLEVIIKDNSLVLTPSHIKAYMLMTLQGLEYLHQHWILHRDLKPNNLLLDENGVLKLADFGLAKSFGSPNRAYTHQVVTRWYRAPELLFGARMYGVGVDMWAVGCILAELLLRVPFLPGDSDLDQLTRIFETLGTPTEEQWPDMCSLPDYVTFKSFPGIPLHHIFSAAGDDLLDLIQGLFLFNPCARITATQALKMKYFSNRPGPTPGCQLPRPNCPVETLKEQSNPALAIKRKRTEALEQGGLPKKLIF
Chain of CDK7/cyclin H (P51946 whole entry partner): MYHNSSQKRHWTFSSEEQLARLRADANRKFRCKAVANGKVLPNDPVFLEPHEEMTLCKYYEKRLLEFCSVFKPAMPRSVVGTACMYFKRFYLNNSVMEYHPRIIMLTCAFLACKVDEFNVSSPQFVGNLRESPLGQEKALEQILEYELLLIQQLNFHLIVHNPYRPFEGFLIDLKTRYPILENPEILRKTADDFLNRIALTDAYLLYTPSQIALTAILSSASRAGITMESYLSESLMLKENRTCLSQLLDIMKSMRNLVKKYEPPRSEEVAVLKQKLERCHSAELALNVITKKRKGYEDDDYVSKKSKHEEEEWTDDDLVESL

Row | SMILES | IC50 (Aurora A kinase) | melting point | further results
1 | CCc1cc(-c2nc(C)c(-c3ccnc(Nc4ccc(S(=O)(=O)NCCO)cc4)n3)s2)ccn1 [Compound 102, 4-{4-[2-(2-Ethyl-pyridin-4-yl)-4-methyl-thiazol-5-yl]-pyrimidin-2-ylamino}-N-(2-hydroxy-ethyl)-benzenesulfonamide] | 63.1 nM | 233 to 234 °C | 
2 | CCc1cc(-c2nc(C)c(-c3ccnc(Nc4ccc(CNC(C)=O)cc4)n3)s2)ccn1 [Compound 104, N-(4-{4-[2-(2-Ethyl-pyridin-4-yl)-4-methyl-thiazol-5-yl]-pyrimidin-2-ylamino}-benzyl)-acetamide] | 63.1 nM | 224 to 225 °C | 
3 | CC(=O)NCc1cccc(Nc2nccc(-c3sc(-c4ncc(C(F)(F)F)cc4Cl)nc3C)n2)c1 [Compound 109, N-(3-{4-[2-(3-Chloro-5-trifluoromethyl-pyridin-2-yl)-4-methyl-thiazol-5-yl]-pyrimidin-2-ylamino}-benzyl)-acetamide] | 631 nM | 217 to 218 °C | 
4 | COCCNS(=O)(=O)c1ccc(Nc2nccc(-c3sc(-c4cccnc4)nc3C)n2)cc1 [Compound 110, N-(2-Methoxy-ethyl)-4-[4-(4-methyl-2-pyridin-3-yl-thiazol-5-yl)-pyrimidin-2-ylamino]-benzenesulfonamide] | 1000 nM | 252 to 254 °C | 
5 | Cc1nc(-c2cccnc2)sc1-c1ccnc(Nc2ccc(N3CCOCC3)c(Cl)c2)n1 [Compound 127, (3-Chloro-4-morpholin-4-yl-phenyl)-[4-(4-methyl-2-pyridin-3-yl-thiazol-5-yl)-pyrimidin-2-yl]-amine] |  | 230 to 231 °C | 
6 | CCNc1nc(C)c(-c2ccnc(Nc3cc(Cl)c(N4CCOCC4)c(Cl)c3)n2)s1 [Compound 133, (3,5-Dichloro-4-morpholin-4-yl-phenyl)-[4-(2-ethylamino-4-methyl-thiazol-5-yl)-pyrimidin-2-yl]-amine] |  | > 300 °C | 
7 | Cc1nc(NCCc2ccccc2)sc1-c1ccnc(Nc2ccc(N3CCN(Cc4ccccc4)CC3)cc2)n1 [Compound 166, [4-(4-Benzyl-piperazin-1-yl)-phenyl]-[4-(4-methyl-2-phenethylamino-thiazol-5-yl)-pyrimidin-2-yl]-amine] |  | 191 to 192 °C | 
8 | Cc1nc(Nc2ccccc2)sc1-c1ccnc(Nc2ccc(N3CCOCC3)cc2)n1 [Compound 167, [4-(4-Methyl-2-phenylamino-thiazol-5-yl)-pyrimidin-2-yl]-(4-morpholin-4-yl-phenyl)-amine] |  | 290 to 291 °C | 
9 | COc1cc(Nc2nccc(-c3sc(Nc4ccccc4)nc3C)n2)cc(OC)c1 [Compound 171, (3,5-Dimethoxy-phenyl)-[4-(4-methyl-2-phenylamino-thiazol-5-yl)-pyrimidin-2-yl]-amine] |  | 191 to 194 °C | 
10 | COc1cc(Nc2nccc(-c3sc(C)nc3C)n2)cc(OC)c1 [Compound 175, (3,5-Dimethoxy-phenyl)-[4-(2,4-dimethyl-thiazol-5-yl)-pyrimidin-2-yl]-amine] | 79.4 nM |  | IC50 (CDK9/cyclin T1): 1580 nM; IC50 (CDK7/cyclin H): 5010 nM; IC50 [1]: 39.8 nM; IC50 (CDK2-cycline E): 1260 nM

More lines, main results first:

Row | IC50 (Aurora A kinase) | melting point | SMILES | further results
11 | 2510 nM | 227 to 229 °C | CC(=O)NCc1cccc(Nc2nccc(-c3sc(-c4ccc(C)nc4)nc3C)n2)c1 [Compound 108, N-(3-{4-[4-Methyl-2-(6-methyl-pyridin-3-yl)-thiazol-5-yl]-pyrimidin-2-ylamino}-benzyl)-acetamide] | 
12 |  | 180 to 183 °C | Cc1nc(NCc2ccccc2)sc1-c1ccnc(Nc2ccc(N3CCOCC3)cc2)n1 [Compound 117, [4-(2-Benzylamino-4-methyl-thiazol-5-yl)-pyrimidin-2-yl]-(4-morpholin-4-yl-phenyl)-amine] | 
13 | 501 nM | 181 to 183 °C | CC(=O)NCc1cccc(Nc2nccc(-c3sc(NCc4ccccc4)nc3C)n2)c1 [Compound 118, N-{3-[4-(2-Benzylamino-4-methyl-thiazol-5-yl)-pyrimidin-2-ylamino]-benzyl}-acetamide] | 
14 | 50.1 nM | 216 to 218 °C | Cc1nc(N(C)c2cc(Cl)cc(Cl)c2)sc1-c1ccnc(Nc2ccc(N3CCOCC3)cc2)n1 [Compound 123, (4-{2-[(3,5-Dichloro-phenyl)-methyl-amino]-4-methyl-thiazol-5-yl}-pyrimidin-2-yl)-(4-morpholin-4-yl-phenyl)-amine] | 
15 | 200 nM | 245 to 246 °C | Cc1nc(N(C)c2ccc(Cl)cc2)sc1-c1ccnc(Nc2ccc(N3CCOCC3)cc2)n1 [Compound 124, (4-{2-[(4-Chloro-phenyl)-methyl-amino]-4-methyl-thiazol-5-yl}-pyrimidin-2-yl)-(4-morpholin-4-yl-phenyl)-amine] | 
16 |  | > 300 °C | Cc1nc(-c2nc(C)c(-c3ccnc(Nc4cc(Cl)c(N5CCOCC5)c(Cl)c4)n3)s2)cs1 [Compound 137, (3,5-Dichloro-4-morpholin-4-yl-phenyl)-[4-(4,2′-dimethyl-[2,4′]bithiazolyl-5-yl)-pyrimidin-2-yl]-amine] | 
17 |  | 229 to 230 °C | COc1cc(Nc2nccc(-c3sc(-c4cccnc4)nc3C)n2)cc(OC)c1 [Compound 155, (3,5-Dimethoxy-phenyl)-[4-(4-methyl-2-pyridin-3-yl-thiazol-5-yl)-pyrimidin-2-yl]-amine] | 

Source: patent publication US20090137572A1, “2-substituted-4-heteroaryl-pyrimidines useful for the treatment of proliferative disorders” (priority 2004, published 2009)
